Laboratory results: patent US5916925A, “Pharmaceutical composition for treatment of dementia” (Takeda Chemical Industries, Ltd., priority 1996, dated 1999)
Values joined by “and” are separate entries in the source; they are usually repeats but may differ in a detail not shown here. Identical values can stand only once. Counter-ions that a name gives are not always drawn. Like-named read-outs stand apart in the source and are kept apart here.

What was measured:
[1] = test system: water maze learning deficit in old rats; experiment: Morris water maze learning in old rats; format: in vivo, rats of the Fischer 344 strain; settings: for average latency to find the platform for all trials, vs control group / water maze learning deficit, overall: idebenone 3 mg/kg, Compound A 0.3 mg/kg, oral, or both
Method: (§1) The old rats were divided into the following four groups.
(§2) Passive avoidance learning tests were started on day 14 of treatment, and Morris water maze learning tests on day 20 of treatment.
In pretraining which was performed for swimming training and motivation for escaping from water, four trials were performed using a water bath, 80 cm in diameter, in a condition that the platform was visible. From the following day, using a water bath, 120 cm in diameter, learning trials, one session (four trials) per day, were performed with the platform being placed below the water.

[2] = test system: passive avoidance learning deficit in old rats; experiment: passive avoidance learning in old rats; format: in vivo, rats of the Fischer 344 strain; settings: idebenone 3 mg/kg, Compound A 0.3 mg/kg, oral, or both; for retention trials, learning deficit: 24 hours after shock loading
Method: as §1, §2
The passive avoidance learning test was performed using a chamber consisting of light and dark compartments. […] After a rat moved to the dark compartment, the rat was kept there for about 10 seconds with the door closed. One to two hours after such habituation trials, acquisition trials were performed.
In acquisition trials, after a rat moved to the dark compartment, a foot shock (0.4 mA, 3 seconds) was given through the grid floor. Retention trials were performed 24 hours after acquisition trials.
In each trial, the latency from opening of the slide door till the animal moved to the dark compartment (step-through latency) was measured.

[3] = test system: GOT; experiment: hepatic clinical laboratory value GOT in patients; format: in vivo, human; settings: for GOT Level: single patients
Method: (§3) In patients with senile dementia of Alzheimer's type, a double-blind placebo controlled multicenter comparative study was conducted under the conditions shown below.
(§4) 451 patients with senile dementia of Alzheimer's type (154 males, 297 females)
(§5) (1) Placebo administration
(§6) Oral administration just after every meal
(§7) Clinical laboratory values

[4] = test system: patients with senile dementia of Alzheimer's type; experiment: double-blind placebo controlled multicenter study, efficacy parameters (ADAS, CGI, NOSGER, SKT); format: in vivo, human
Method: as §3, §5, §6

[5] = test system: GPT; experiment: hepatic clinical laboratory value GPT in patients; format: in vivo, human; settings: for GPT Level: single patients
Method: as §3, §4, §5, §6, §7

[6] = test system: patients with senile dementia of Alzheimer's type; experiment: clinical study, safety assessment and dropouts; format: in vivo, human; settings: for subjects dropped out: subjects in this study (groups not separated)
Method: as §3, §4, §5
Group 3 (placebo administration), 153 patients (54 males, 99 females; average age 70 years)
as §6, §7

[7] = test system: patients with senile dementia of Alzheimer's type; settings: 90 mg per day per adult; cited from earlier work
[8] = test system: patients; settings: cited from earlier work
[9] = 6 Months of Administration, 90 mg 3 times daily
[10] = 6 Months of Administration, 120 mg 3 times daily
[11] = 270 or 360 mg per day, 6 months, vs placebo
[12] = Pre-administration (baseline), 90 mg 3 times daily group
[13] = Pre-administration (baseline), 120 mg 3 times daily group
[14] = 90 mg, 120 mg 3-times-a-day and placebo

O=C(CCC1CCN(Cc2ccccc2)CC1)c1ccc2c(c1)NCCCC2 [Compound A, 8-[1-oxo-3-(phenylmetyl)piperidin-4-yl]propyl]-2,3,4,5-tetrahydro-1H-1-benzazepine fumarate]
water maze learning (latency to find the platform) ([1]; day 2 of experiment): significant improvement | water maze learning (latency to find the platform) ([1]; day 3 of experiment): did not differ from the control group | average latency to find the platform for all trials, vs control group [1]: did not show significant shortening of average latency compared with the control group | water maze learning deficit, overall [1]: did not improve water maze learning deficit in old rats | retention trials, learning deficit [2]: tended to show improvements in learning deficit in old rats but the effect was not significant | passive avoidance learning deficit, overall [2]: did not improve passive avoidance learning deficit in old rats

COC1=C(OC)C(=O)C(CCCCCCCCCCO)=C(C)C1=O [idebenone, 6-(10-hydroxydecyl) -2,3-dimethoxy-5-methyl-1,4-benzoquinone]
GOT Level [3, 9]: 45 U/L and 38 U/L and 60 U/L and 86 U/L and 49 U/L and 32 U/L and 47 U/L and 26 U/L and 29 U/L | GOT Level [3, 10]: 41 U/L and 27 U/L and 28 U/L and 34 U/L and 37 U/L and 23 U/L and 131 U/L | change in GOT level [3, 11]: little change in GPT level and GOT level | GOT Level [3, 12]: 19 U/L and 27 U/L and 33 U/L and 32 U/L and 15 U/L and 29 U/L and 13 U/L and 22 U/L | GOT Level [3, 13]: 23 U/L and 24 U/L and 29 U/L and 21 U/L and 25 U/L | average latency to find the platform for all trials, vs control group [1]: did not show significant shortening of average latency compared with the control group | water maze learning deficit, overall [1]: did not improve water maze learning deficit in old rats | water maze learning deficit (latency to find the platform) ([1]; latter period of training, idebenone 3 mg/kg oral): slight tendency toward improvement in water maze learning deficit | ADAS Sum Score, relief compared with placebo ([4]; 90 mg 3-times-a-day, 6 months): significant relief | ADAS Sum Score, relief compared with placebo ([4]; 90 mg 3-times-a-day, 12 months): significant relief | ADAS Sum Score, dose dependence of effect ([4]; 90 mg and 120 mg 3-times-a-day, 6 and 12 months): dose dependent | ADAS Cognitive Score, differences among groups [4, 14]: significant differences among the three groups were noted, with dose dependency | CGI Global Improvement, differences among groups [4, 14]: significant differences among the three groups were noted, with dose dependency | CGI Severity of Disease, differences among groups [4, 14]: significant differences among the three groups were noted, with dose dependency | NOSGER IADL, differences among groups [4, 14]: significant differences among the three groups were noted, with dose dependency | NOSGER Sum Score, differences among groups [4, 14]: significant differences among the three groups were noted, with dose dependency | SKT, differences among groups [4, 14]: significant differences among the three groups were noted, with dose dependency | ADAS Sum Score, relief compared with placebo ([4]; 120 mg 3-times-a-day, 6 months): significant relief | ADAS Sum Score, relief compared with placebo ([4]; 120 mg 3-times-a-day, 12 months): significant relief | effect in comparison with published clinical data on tacrine ([4]; 270 mg (90 mg, 3-times-a-day)): better effects | effect in comparison with published clinical data on tacrine ([4]; 360 mg (120 mg, 3-times-a-day)): better effects | magnitude of effect, irrespective of assessment method ([4]; 360 mg idebenone administration group): marked effect | symptom progression ([4]; FIGS. 1 to 7): symptom progression was surely suppressed | symptom-relieving and symptom progression-suppressing effects, 12 months vs 6 months ([4]; period exceeding 6 months): greater symptom-relieving and symptom progression-suppressing effects are noted at 12 months than at 6 months | GPT Level [5, 9]: 61 U/L and 54 U/L and 34 U/L and 43 U/L and 26 U/L and 37 U/L and 35 U/L and 50 U/L | GPT Level [5, 10]: 26 U/L and 39 U/L and 43 U/L and 55 U/L and 25 U/L and 38 U/L and 60 U/L | change in GPT level [5, 11]: little change in GPT level and GOT level | GPT Level [5, 12]: 25 U/L and 34 U/L and 36 U/L and 63 U/L and 9 U/L and 14 U/L and 29 U/L and 33 U/L | GPT Level [5, 13]: 22 U/L and 14 U/L and 28 U/L and 29 U/L and 37 U/L and 31 U/L | incidence and severity of accompanying symptoms ([6]; 90 mg and 120 mg 3-times-a-day vs placebo): No differences were noted among the three groups | subjects dropped out ([6]; by 6 months): 9% | subjects dropped out ([6]; by 12 months): about 15% | elevation of clinical laboratory values (GOT and GPT) ([6]; idebenone administration groups): very low | major objective and subjective symptoms ([6]; three groups together): vertigo, anorexia, sleep disturbance and arthralgia | efficacy in senile dementia of Alzheimer's type [7]: effective | retention trials, learning deficit [2]: tended to show improvements in learning deficit in old rats but the effect was not significant | passive avoidance learning deficit, overall [2]: did not improve passive avoidance learning deficit in old rats

Nc1c2c(nc3ccccc13)CCCC2 [tacrine]
patients who withdrew from the treatment ([8]; 30-week administration of tacrine): 74% | subjects dropped out ([8]; high-dose tacrine group, by 30 weeks): 74% | subjects dropped out ([8]; low-dose tacrine group, until final administration by 30 weeks): 59% | subjects dropped out ([8]; moderate-dose tacrine group, by 30 weeks): 71% | dropouts or discontinuations due to adverse reactions ([8]; tacrine, study period): a large number of dropouts or discontinuations occurred due to adverse reactions | adverse effects on long-term administration ([8]; tacrine): hepatic toxicity
